Source: patent US20230372337A1, “Combination Therapy Comprising an AXL Inhibitor” (BERGENBIO ASA, priority 2020, published 2023)
Read-outs that look alike come from different tables or passages of the source.

Legend:
Type in all cases: cell-based, mouse
[1] = system: 4T1 cells; assay: RNA sequencing of 4T1 cells in vitro (Example 4); details: without supplemental Gas6
[2] = system: LL2 cells; assay: Resazurin viability assay of LL2 cells (Example 4)
Description: (§1) 4T1 cells (ATCC, CRL-2539) were cultured in RPMI-1640 (Sigma, Cat. #R8758) supplemented with 10% fetal bovine serum (FBS), L-glutamine (4 mM), streptomycin (5 μg/ml) and penicillin (5 U/ml). […] Lewis lung carcinoma cells LL/2 (LLC1) (ATCC, CRL-1642™) were cultured in Dulbecco's Modified Eagle's Medium ATCC® 30-2002™ (4 mM L-glutamine, 4500 mg/L glucose, 1 mM sodium pyruvate, and 1500 mg/L sodium bicarbonate).
(§2) The IC50 of the different drugs were calculated by resazurin viability assay. […] The cells were treated for 48 hours.

[3] = system: LL2 cells; assay: qRTPCR of IFN related genes in Lewis lung carcinoma (LL2) cells in vitro (Example 4); details: Doxorubicin 50 nM, 48 hours
Description: as §1
RNA was extracted from snap frozen tumors using the RNEasy Microarray Tissue Mini kit from Qiagen following the manufacturer's instructions. As tumors contained Doxorubicin and powderizing them could expose personnel to harmful substances, the RNA was extracted in a closed system using the GentleMACS dissociator and M Tubes. Purity and concentration of RNA was measured using Nanodrop. RT^2 Profiler™ PCR Array. cDNA was synthesized from RNA using the RT^2 First Strand kit (Qiagen) according to the manufacturer's instructions. cDNA was mixed with RT^2 SYBR Green Mastermix (Qiagen) and loaded into RT^2 Profiler™ PCR Array Mouse Type I Interferon Response or RT^2 Profiler™ PCR Array Mouse Epithelial to Mesenchymal Transition (EMT), analyzing the expression of the genes listed in Table 17. The plates were analyzed using Light Cycler 480 (Roche) and data were analyzed using the Qiagen Data Analysis Centre and Graph Pad (Prism).
Chemotherapeutic agents commonly used to treat lung cancer patients were evaluated for effects on the IFN response. Cisplatin, navelbine and docetaxel were tested in vitro in combination with bemcentinib.
as §2

| SMILES | IFN related gene expression by RNA sequencing [1] | IC50 ([2]; Mus musculus, LL/2, read-out: IC50 without bem) [µM] | IC50 ([2]; in the presence of bemcentinib, read-out: IC50 with bem) [µM] | ISG significantly upregulated compared to control (number) [3] |
| --- | --- | --- | --- | --- |
| Nc1nc(Nc2ccc3c(c2)CC[C@@H](N2CCCC2)CC3)nn1-c1cc2c(nn1)-c1ccccc1CCC2 [Bemcentinib, bemcentinib] | limited IFN type I response | – | – | – |
| COc1cccc2c1C(=O)c1c(O)c3c(c(O)c1C2=O)C[C@@](O)(C(=O)CO)C[C@@H]3O[C@H]1C[C@H](N)[C@H](O)[C@H](C)O1 [Doxorubicin, doxorubicin] | – | 0.178 | 0.0703 | limited IFN response |
